{"source": "PubChem BioAssay AID1259407", "about": "(Chemical Carcinogenesis Research Information System (CCRIS), 2018)", "test_system": "CCRIS mutagenicity, Ames/micronucleus/aberration tests", "assay": "CCRIS mutagenicity studies", "key": {"[1]": {"conditions": "Test System: AMES SALMONELLA TYPHIMURIUM, Strain/Indicator: TA98, Metabolic Activation: NONE, Method: PREINCUBATION"}, "[2]": {"conditions": "Test System: AMES SALMONELLA TYPHIMURIUM, Strain/Indicator: TA98, Metabolic Activation: NONE, Method: STANDARD PLATE"}, "[3]": {"conditions": "Test System: AMES SALMONELLA TYPHIMURIUM, Strain/Indicator: TA98, Metabolic Activation: RAT, LIVER, S-9, AROCLOR 1254, Method: STANDARD PLATE"}}, "note": "Active and inactive are the calls of the source. The rule behind the calls is not given here."}
{"smiles": "O=[N+]([O-])c1ccc(-[n+]2nc(-c3ccccc3)nn2-c2ccc(I)cc2)cc1", "values": [{"measurement": "mutagenic call", "setting": "Test System: AMES SALMONELLA TYPHIMURIUM, Strain/Indicator: TA97, Metabolic Activation: NONE, Method: SPOT TEST", "value": "inactive; negative"}, {"measurement": "mutagenic call", "setting": "[1]", "value": "inactive; negative"}, {"measurement": "mutagenic call", "setting": "Test System: AMES SALMONELLA TYPHIMURIUM, Strain/Indicator: TA98, Metabolic Activation: NONE, Method: SPOT TEST", "value": "inactive; negative"}, {"measurement": "mutagenic call", "setting": "Test System: AMES SALMONELLA TYPHIMURIUM, Strain/Indicator: TA100, Metabolic Activation: NONE, Method: PREINCUBATION", "value": "inactive; negative"}, {"measurement": "mutagenic call", "setting": "Test System: AMES SALMONELLA TYPHIMURIUM, Strain/Indicator: TA100, Metabolic Activation: NONE, Method: SPOT TEST", "value": "inactive; negative"}, {"measurement": "mutagenic call", "setting": "Test System: AMES SALMONELLA TYPHIMURIUM, Strain/Indicator: TA102, Metabolic Activation: NONE, Method: SPOT TEST", "value": "inactive; negative"}]}
{"smiles": "Nc1ccc(-c2ccc([N+](=O)[O-])cc2N)c([N+](=O)[O-])c1", "values": [{"measurement": "mutagenic call", "setting": "[1]", "value": "active; positive"}, {"measurement": "mutagenic call", "setting": "Test System: AMES SALMONELLA TYPHIMURIUM, Strain/Indicator: TA98, Metabolic Activation: RAT, LIVER, S-9, KANECHLOR 500, Method: PREINCUBATION", "value": "active; positive"}]}
{"smiles": "O=[N+]([O-])c1c2ccccc2c([N+](=O)[O-])c2ccccc12", "values": [{"measurement": "mutagenic call", "setting": "[2]", "value": "inactive; negative"}]}
{"smiles": "C[Si](C)(C)O[Si](C)(C)O[Si](C)(C)C", "values": [{"measurement": "mutagenic call", "setting": "Test System: AMES SALMONELLA TYPHIMURIUM, Strain/Indicator: TA98, Metabolic Activation: HAMSTER, LIVER, S-9, AROCLOR 1254, Method: STANDARD PLATE", "value": "inactive; negative"}, {"measurement": "mutagenic call", "setting": "[2]", "value": "inactive; negative"}, {"measurement": "mutagenic call", "setting": "[3]", "value": "inactive; negative"}, {"measurement": "mutagenic call", "setting": "Test System: AMES SALMONELLA TYPHIMURIUM, Strain/Indicator: TA100, Metabolic Activation: HAMSTER, LIVER, S-9, AROCLOR 1254, Method: STANDARD PLATE", "value": "inactive; negative"}, {"measurement": "mutagenic call", "setting": "Test System: AMES SALMONELLA TYPHIMURIUM, Strain/Indicator: TA100, Metabolic Activation: NONE, Method: STANDARD PLATE", "value": "inactive; negative"}, {"measurement": "mutagenic call", "setting": "Test System: AMES SALMONELLA TYPHIMURIUM, Strain/Indicator: TA100, Metabolic Activation: RAT, LIVER, S-9, AROCLOR 1254, Method: STANDARD PLATE", "value": "inactive; negative"}, {"measurement": "mutagenic call", "setting": "Test System: AMES SALMONELLA TYPHIMURIUM, Strain/Indicator: TA1535, Metabolic Activation: HAMSTER, LIVER, S-9, AROCLOR 1254, Method: STANDARD PLATE", "value": "inactive; negative"}, {"measurement": "mutagenic call", "setting": "Test System: AMES SALMONELLA TYPHIMURIUM, Strain/Indicator: TA1535, Metabolic Activation: NONE, Method: STANDARD PLATE", "value": "inactive; negative"}, {"measurement": "mutagenic call", "setting": "Test System: AMES SALMONELLA TYPHIMURIUM, Strain/Indicator: TA1535, Metabolic Activation: RAT, LIVER, S-9, AROCLOR 1254, Method: STANDARD PLATE", "value": "inactive; negative"}, {"measurement": "mutagenic call", "setting": "Test System: AMES SALMONELLA TYPHIMURIUM, Strain/Indicator: TA1537, Metabolic Activation: HAMSTER, LIVER, S-9, AROCLOR 1254, Method: STANDARD PLATE", "value": "inactive; negative"}, {"measurement": "mutagenic call", "setting": "Test System: AMES SALMONELLA TYPHIMURIUM, Strain/Indicator: TA1537, Metabolic Activation: NONE, Method: STANDARD PLATE", "value": "inactive; negative"}, {"measurement": "mutagenic call", "setting": "Test System: AMES SALMONELLA TYPHIMURIUM, Strain/Indicator: TA1537, Metabolic Activation: RAT, LIVER, S-9, AROCLOR 1254, Method: STANDARD PLATE", "value": "inactive; negative"}, {"measurement": "mutagenic call", "setting": "Test System: AMES SALMONELLA TYPHIMURIUM, Strain/Indicator: TA1538, Metabolic Activation: HAMSTER, LIVER, S-9, AROCLOR 1254, Method: STANDARD PLATE", "value": "inactive; negative"}, {"measurement": "mutagenic call", "setting": "Test System: AMES SALMONELLA TYPHIMURIUM, Strain/Indicator: TA1538, Metabolic Activation: NONE, Method: STANDARD PLATE", "value": "inactive; negative"}, {"measurement": "mutagenic call", "setting": "Test System: AMES SALMONELLA TYPHIMURIUM, Strain/Indicator: TA1538, Metabolic Activation: RAT, LIVER, S-9, AROCLOR 1254, Method: STANDARD PLATE", "value": "inactive; negative"}, {"measurement": "mutagenic call", "setting": "Test System: E. COLI, Strain/Indicator: WP2, Metabolic Activation: NONE, Method: STANDARD PLATE", "value": "inactive; negative"}, {"measurement": "mutagenic call", "setting": "Test System: E. COLI, Strain/Indicator: WP2, Metabolic Activation: RAT, LIVER, S-9, AROCLOR 1254, Method: STANDARD PLATE", "value": "inactive; negative"}, {"measurement": "mutagenic call", "setting": "Test System: MOUSE LYMPHOMA, Strain/Indicator: L5178Y (TK+/TK-), Metabolic Activation: NONE, Method: SUSPENSION/PLATE", "value": "active; positive. reevaluation of results: positive"}, {"measurement": "mutagenic call", "setting": "Test System: MOUSE LYMPHOMA, Strain/Indicator: L5178Y (TK+/TK-), Metabolic Activation: RAT, LIVER, S-9, AROCLOR 1254, Method: SUSPENSION/PLATE", "value": "inactive; negative. reevaluation of results: negative"}]}
{"smiles": "Cn1c(N)nc2c3nc(-c4ccccc4)c(-c4ccccc4)nc3ccc21", "values": [{"measurement": "mutagenic call", "setting": "[3]", "value": "inactive; negative"}]}
{"smiles": "C/C=C/C=C/C(=O)O", "values": [{"measurement": "mutagenic call", "setting": "Test System: AMES SALMONELLA TYPHIMURIUM, Strain/Indicator: TA97A, Metabolic Activation: NONE, Method: PREINCUBATION", "value": "inactive; negative"}, {"measurement": "mutagenic call", "setting": "Test System: AMES SALMONELLA TYPHIMURIUM, Strain/Indicator: TA97A, Metabolic Activation: RAT, LIVER, S-9, AROCLOR 1254, Method: PREINCUBATION", "value": "inactive; negative"}, {"measurement": "mutagenic call", "setting": "Test System: AMES SALMONELLA TYPHIMURIUM, Strain/Indicator: TA102, Metabolic Activation: NONE, Method: PREINCUBATION", "value": "inactive; negative"}, {"measurement": "mutagenic call", "setting": "Test System: AMES SALMONELLA TYPHIMURIUM, Strain/Indicator: TA102, Metabolic Activation: RAT, LIVER, S-9, AROCLOR 1254, Method: PREINCUBATION", "value": "inactive; negative"}, {"measurement": "mutagenic call", "setting": "Test System: CHINESE HAMSTER V-79, Strain/Indicator: V-79/6-THIOGUANINE, Metabolic Activation: NONE, Method: FLASK ASSAY", "value": "active; positive"}]}
{"smiles": "CN(N=O)C(C)(C)C", "values": [{"measurement": "mutagenic call", "setting": "Test System: CHINESE HAMSTER V-79, Strain/Indicator: V-79/OUABAIN, Metabolic Activation: HAMSTER, HEPATOCYTES, Method: CELL-MEDIATED", "value": "inactive; negative"}]}
{"smiles": "CCSC(=O)N1CCCCCC1", "values": [{"measurement": "mutagenic call", "setting": "Test System: AMES SALMONELLA TYPHIMURIUM, Strain/Indicator: TA98, Metabolic Activation: NONE", "value": "inactive; negative"}, {"measurement": "mutagenic call", "setting": "Test System: AMES SALMONELLA TYPHIMURIUM, Strain/Indicator: TA98, Metabolic Activation: RAT, LIVER, S-9, AROCLOR 1254", "value": "inactive; negative"}, {"measurement": "mutagenic call", "setting": "Test System: AMES SALMONELLA TYPHIMURIUM, Strain/Indicator: TA100, Metabolic Activation: NONE", "value": "inactive; negative"}, {"measurement": "mutagenic call", "setting": "Test System: AMES SALMONELLA TYPHIMURIUM, Strain/Indicator: TA100, Metabolic Activation: RAT, LIVER, S-9, AROCLOR 1254", "value": "inactive; negative"}, {"measurement": "mutagenic call", "setting": "Test System: AMES SALMONELLA TYPHIMURIUM, Strain/Indicator: TA102, Metabolic Activation: NONE", "value": "inactive; negative"}, {"measurement": "mutagenic call", "setting": "Test System: AMES SALMONELLA TYPHIMURIUM, Strain/Indicator: TA102, Metabolic Activation: RAT, LIVER, S-9, AROCLOR 1254", "value": "inactive; negative"}, {"measurement": "mutagenic call", "setting": "Test System: AMES SALMONELLA TYPHIMURIUM, Strain/Indicator: TA1535, Metabolic Activation: NONE", "value": "inactive; negative"}, {"measurement": "mutagenic call", "setting": "Test System: AMES SALMONELLA TYPHIMURIUM, Strain/Indicator: TA1535, Metabolic Activation: RAT, LIVER, S-9, AROCLOR 1254", "value": "inactive; negative"}, {"measurement": "mutagenic call", "setting": "Test System: AMES SALMONELLA TYPHIMURIUM, Strain/Indicator: TA1537, Metabolic Activation: NONE", "value": "inactive; negative"}, {"measurement": "mutagenic call", "setting": "Test System: AMES SALMONELLA TYPHIMURIUM, Strain/Indicator: TA1537, Metabolic Activation: RAT, LIVER, S-9, AROCLOR 1254", "value": "inactive; negative"}]}
{"smiles": "OC1C=Cc2c(cc3ccc4cccc5ccc2c3c45)C1", "note": "(stereo unspecified)", "values": [{"measurement": "mutagenic call", "setting": "[3]", "value": "active; positive"}]}
